# “Also recorded” adds a separate entry of the source.
# Biological target: BoNT/A (Clostridium botulinum, UniProt P0DPI1)
# Assay type: cell-based
# Chain of BoNT/A (P0DPI1 2-448 limits assumed): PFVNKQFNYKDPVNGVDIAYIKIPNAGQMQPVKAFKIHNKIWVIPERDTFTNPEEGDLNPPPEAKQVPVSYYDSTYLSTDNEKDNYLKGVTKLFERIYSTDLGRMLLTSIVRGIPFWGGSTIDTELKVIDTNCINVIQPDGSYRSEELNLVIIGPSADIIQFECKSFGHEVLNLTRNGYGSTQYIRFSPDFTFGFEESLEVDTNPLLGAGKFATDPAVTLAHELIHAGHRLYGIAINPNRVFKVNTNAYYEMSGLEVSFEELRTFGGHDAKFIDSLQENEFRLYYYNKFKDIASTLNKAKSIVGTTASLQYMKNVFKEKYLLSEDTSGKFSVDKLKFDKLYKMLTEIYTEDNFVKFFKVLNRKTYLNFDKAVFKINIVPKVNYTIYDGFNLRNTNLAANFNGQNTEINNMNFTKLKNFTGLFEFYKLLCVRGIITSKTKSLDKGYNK
# Chain of BoNT/A (P0DPI1 449-1296 limits assumed): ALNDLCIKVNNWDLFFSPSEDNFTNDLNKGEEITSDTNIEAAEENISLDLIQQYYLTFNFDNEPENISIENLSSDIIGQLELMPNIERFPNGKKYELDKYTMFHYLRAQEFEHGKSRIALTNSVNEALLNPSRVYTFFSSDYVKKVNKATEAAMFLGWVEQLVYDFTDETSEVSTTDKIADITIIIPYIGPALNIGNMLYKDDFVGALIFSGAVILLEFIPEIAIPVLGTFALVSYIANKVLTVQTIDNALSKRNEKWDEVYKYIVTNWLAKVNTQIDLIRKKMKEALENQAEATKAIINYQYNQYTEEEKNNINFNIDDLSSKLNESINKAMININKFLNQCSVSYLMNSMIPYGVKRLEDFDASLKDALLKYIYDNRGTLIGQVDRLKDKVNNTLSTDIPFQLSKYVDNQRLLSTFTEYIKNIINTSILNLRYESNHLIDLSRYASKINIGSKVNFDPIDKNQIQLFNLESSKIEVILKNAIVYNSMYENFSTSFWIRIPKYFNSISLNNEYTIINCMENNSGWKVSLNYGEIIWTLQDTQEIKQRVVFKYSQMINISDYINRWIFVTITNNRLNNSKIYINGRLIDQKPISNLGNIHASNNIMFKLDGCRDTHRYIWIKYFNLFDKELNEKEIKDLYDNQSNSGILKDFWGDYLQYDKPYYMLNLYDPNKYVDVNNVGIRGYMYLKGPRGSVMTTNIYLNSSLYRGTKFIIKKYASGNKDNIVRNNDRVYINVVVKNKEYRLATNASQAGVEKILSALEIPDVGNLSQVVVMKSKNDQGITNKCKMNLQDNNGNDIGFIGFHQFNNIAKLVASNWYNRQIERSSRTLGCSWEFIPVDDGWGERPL
compound,measurement,value
CC(=O)O[C@@H]1C[C@H](O)[C@@]23CO[C@@H](O)[C@]1(C)[C@@H]2C[C@@H](O)[C@]1(C)[C@@H]3C(=O)[C@H](OC(C)=O)[C@@]2(C)[C@H](c3ccoc3)C[C@H]3O[C@]321 [Toosendanin],SNAP25 cleavage in presence of Toosendanin,only full-length SNAP25 was detected; also recorded: protects against BoNT/A induced SNAP25 cleavage

# Reference: US8940477B2 (priority 2007, dated 2015)
